Data reported in ChEMBL document CHEMBL1139680, “2,4-Disubstituted piperidines as selective CC chemokine receptor 3 (CCR3) antagonists: synthesis and selectivity” (Bioorg Med Chem Lett, 2006).

What was measured:
[1] = target: T1, C-C chemokine receptor type 3 (Homo sapiens, UniProt P51677); assay: Binding affinity to CCR3
T1 sequence (P51677 whole entry): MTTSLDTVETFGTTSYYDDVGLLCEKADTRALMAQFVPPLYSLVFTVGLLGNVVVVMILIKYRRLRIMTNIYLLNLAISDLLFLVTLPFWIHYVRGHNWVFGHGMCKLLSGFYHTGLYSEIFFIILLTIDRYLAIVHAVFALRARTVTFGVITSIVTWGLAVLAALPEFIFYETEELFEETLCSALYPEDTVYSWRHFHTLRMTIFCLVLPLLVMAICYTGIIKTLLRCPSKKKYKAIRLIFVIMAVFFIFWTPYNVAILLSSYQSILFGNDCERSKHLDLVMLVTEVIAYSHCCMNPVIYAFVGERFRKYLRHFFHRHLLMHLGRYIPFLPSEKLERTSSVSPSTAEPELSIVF

[2] = target: Sodium-dependent serotonin transporter (Homo sapiens, UniProt P31645); assay: Inhibition of 5HTT
Sodium-dependent serotonin transporter, sequence (P31645 whole entry): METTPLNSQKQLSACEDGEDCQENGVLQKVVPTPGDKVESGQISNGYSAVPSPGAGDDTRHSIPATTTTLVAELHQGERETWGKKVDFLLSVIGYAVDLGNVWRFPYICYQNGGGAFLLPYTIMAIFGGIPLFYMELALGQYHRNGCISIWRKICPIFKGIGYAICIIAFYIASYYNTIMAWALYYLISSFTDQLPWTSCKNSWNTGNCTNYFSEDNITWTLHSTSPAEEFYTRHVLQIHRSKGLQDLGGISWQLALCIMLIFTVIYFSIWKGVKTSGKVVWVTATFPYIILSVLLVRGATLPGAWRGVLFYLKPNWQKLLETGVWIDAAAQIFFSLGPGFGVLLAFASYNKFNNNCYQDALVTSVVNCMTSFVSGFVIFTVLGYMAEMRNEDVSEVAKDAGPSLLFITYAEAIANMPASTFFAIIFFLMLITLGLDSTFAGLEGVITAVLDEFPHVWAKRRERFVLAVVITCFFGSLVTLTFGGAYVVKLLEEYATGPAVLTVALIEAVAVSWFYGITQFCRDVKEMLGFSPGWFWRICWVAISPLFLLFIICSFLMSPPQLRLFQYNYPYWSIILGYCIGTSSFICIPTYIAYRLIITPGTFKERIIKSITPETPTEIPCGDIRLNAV

[3] = target: Sodium-dependent dopamine transporter (Homo sapiens, UniProt Q01959); assay: Inhibition of DAT
Sodium-dependent dopamine transporter, sequence (Q01959 whole entry): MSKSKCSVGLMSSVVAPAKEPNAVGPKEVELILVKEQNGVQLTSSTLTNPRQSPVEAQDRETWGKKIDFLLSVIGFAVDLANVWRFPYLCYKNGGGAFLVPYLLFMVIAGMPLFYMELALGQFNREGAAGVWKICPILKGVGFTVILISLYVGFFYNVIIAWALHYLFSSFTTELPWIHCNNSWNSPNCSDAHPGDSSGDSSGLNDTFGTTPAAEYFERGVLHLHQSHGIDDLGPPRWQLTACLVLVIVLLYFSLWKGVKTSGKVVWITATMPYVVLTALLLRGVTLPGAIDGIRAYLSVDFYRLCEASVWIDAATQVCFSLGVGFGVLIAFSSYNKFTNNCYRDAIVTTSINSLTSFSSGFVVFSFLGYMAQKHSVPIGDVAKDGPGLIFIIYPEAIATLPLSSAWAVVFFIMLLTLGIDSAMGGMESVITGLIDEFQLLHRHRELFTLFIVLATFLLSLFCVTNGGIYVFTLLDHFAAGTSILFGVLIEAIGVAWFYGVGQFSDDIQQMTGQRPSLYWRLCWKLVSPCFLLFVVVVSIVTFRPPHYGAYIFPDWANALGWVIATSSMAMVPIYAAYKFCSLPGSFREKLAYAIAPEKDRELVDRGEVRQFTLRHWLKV

[4] = target: Sodium-dependent noradrenaline transporter (Homo sapiens, UniProt P23975); assay: Inhibition of NET
Sodium-dependent noradrenaline transporter, sequence (P23975 whole entry): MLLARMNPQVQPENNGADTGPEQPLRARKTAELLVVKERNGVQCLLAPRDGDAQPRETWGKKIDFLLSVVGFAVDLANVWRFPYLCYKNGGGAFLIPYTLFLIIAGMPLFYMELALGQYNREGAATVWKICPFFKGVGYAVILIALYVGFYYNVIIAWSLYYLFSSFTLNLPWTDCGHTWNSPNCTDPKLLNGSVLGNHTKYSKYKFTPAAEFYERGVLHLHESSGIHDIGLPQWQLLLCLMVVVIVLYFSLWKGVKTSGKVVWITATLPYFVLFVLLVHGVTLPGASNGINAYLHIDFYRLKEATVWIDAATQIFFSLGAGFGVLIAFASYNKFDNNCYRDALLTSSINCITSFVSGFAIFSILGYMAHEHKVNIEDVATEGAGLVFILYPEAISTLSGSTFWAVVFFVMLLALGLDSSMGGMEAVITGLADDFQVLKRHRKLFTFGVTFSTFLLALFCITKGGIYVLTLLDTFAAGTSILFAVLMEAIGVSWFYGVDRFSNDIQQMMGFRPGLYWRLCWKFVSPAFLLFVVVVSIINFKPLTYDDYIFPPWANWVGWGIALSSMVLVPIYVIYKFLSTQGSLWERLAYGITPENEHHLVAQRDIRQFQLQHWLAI

[5] = tested on: Eosinophil; assay: Inhibition of eotaxin-induced calcium mobilization in eosinophil; type: functional, cell-based; conditions: Homo sapiens
[6] = tested on: Eosinophil; assay: Inhibition of eotaxin-induced human eosinophil chemotaxis; type: functional, cell-based
[7] = Clearance in mouse at 2 mg/kg, iv; type: ADME, organism-based; design: dose 2 mg/kg, route intravenous; conditions: in vivo
[8] = Volume of distribution in mouse ar 2 mg/kg, iv; type: ADME, organism-based; design: dose 2 mg/kg, route intravenous; conditions: in vivo, read-out: Vdss
[9] = Half life in mouse at 10 mg/kg, po; type: ADME, organism-based; design: dose 10 mg/kg, route oral; conditions: in vivo
[10] = Cmax in mice after 10 mg/kg oral dose; type: ADME, organism-based; design: dose 10 mg/kg, route oral; conditions: mouse, in vivo
[11] = Oral bioavailability in mouse at 10 mg/kg, po; type: ADME, organism-based; conditions: in vivo
[12] = Clearance in cynomolgus monkey at 2 mg/kg, iv; type: ADME, organism-based, Macaca fascicularis; design: dose 2 mg/kg, route intravenous; conditions: in vivo
[13] = Volume of distribution in cynomolgus monkey at 2 mg/kg, iv; type: ADME, organism-based, Macaca fascicularis; design: dose 2 mg/kg, route intravenous; conditions: in vivo, read-out: Vdss
[14] = Half life in cynomolgus monkey at 5 mg/kg, po; type: ADME, organism-based, Macaca fascicularis; design: dose 5 mg/kg, route oral; conditions: in vivo
[15] = Cmax in cynomolgus monkeys after 5 mg/kg oral dose; type: ADME, organism-based, Macaca fascicularis; design: dose 5 mg/kg, route oral; conditions: cynomolgus monkey, in vivo
[16] = Oral bioavailability in cynomolgus monkey at 5 mg/kg, po; type: ADME, organism-based, Macaca fascicularis; conditions: in vivo

| SMILES | IC50 [1] | Ki [2] | Ki [3] | Ki [4] | also measured |
| --- | --- | --- | --- | --- | --- |
| CC(=O)c1cc(NC(=O)NCCC[C@H]2C[C@H](Cc3ccc(F)cc3)CCN2CC(F)(F)F)cc(C(C)=O)c1 | 1380 nM (antagonist) | – | – | – | – |
| CC(=O)c1cc(NC(=O)NCCC[C@H]2C[C@H](Cc3ccc(F)cc3)CCN2)cc(C(C)=O)c1 | 0.5 nM (antagonist) | 3.5 nM | 119 nM | 95 nM | – |
| CC(=O)c1cccc(NC(=O)NCCC[C@H]2C[C@H](Cc3ccc(F)cc3)CCN2C)c1 | 1.7 nM (antagonist) | 572 nM | 96 nM | 257 nM | – |
| C=CCN1CC[C@@H](Cc2ccc(F)cc2)C[C@@H]1CCCNC(=O)Nc1cc(C(C)=O)cc(C(C)=O)c1 | 1 nM (antagonist) | 69 nM | 297 nM | 876 nM | – |
| CC(=O)c1cc(NC(=O)NCCC[C@H]2C[C@H](Cc3ccc(F)cc3)CCN2CCO)cc(C(C)=O)c1 | 0.9 nM (antagonist) | 40 nM | 451 nM | 1390 nM | – |
| CC(=O)c1cccc(NC(=O)NCCC[C@H]2C[C@H](Cc3ccc(F)cc3)CCN2)c1 | 1.4 nM (antagonist) | 18 nM | 219 nM | 233 nM | – |
| CC(=O)c1cc(NC(=O)NCCC[C@H]2C[C@H](Cc3ccc(F)cc3)CCN2CCF)cc(C(C)=O)c1 | 2.3 nM (antagonist) | 49 nM | 651 nM | 317 nM | – |
| C#CCN1CC[C@@H](Cc2ccc(F)cc2)C[C@@H]1CCCNC(=O)Nc1cc(C(C)=O)cc(C(C)=O)c1 | 1.9 nM (antagonist) | 305 nM | 621 nM | 524 nM | – |
| CC(=O)c1cc(NC(=O)NCCC[C@H]2C[C@H](Cc3ccc(F)cc3)CCN2C(=N)N)cc(C(C)=O)c1 | 4.3 nM (antagonist) | 19 nM | 31 nM | 388 nM | – |
| CC(=O)c1cccc(NC(=O)NCCC[C@H]2C[C@H](Cc3ccc(F)cc3)CCN2CCO)c1 | 7 nM (antagonist) | 50 nM | 2240 nM | 1820 nM | – |
| CC(=O)c1cccc(NC(=O)NCCC[C@H]2C[C@H](Cc3ccc(F)cc3)CCN2CC2CC2)c1 | 2.5 nM (antagonist) | 117 nM | 251 nM | 3450 nM | – |
| CCCN1CC[C@@H](Cc2ccc(F)cc2)C[C@@H]1CCCNC(=O)Nc1cccc(C(C)=O)c1 | 2 nM (antagonist) | 296 nM | 756 nM | 4170 nM | IC50 [5]: 26 nM; EC50 [6]: 19 nM; clearance [7]: 177 mL/min/kg; Vd [8]: 8 L/kg; half-life [9]: 1.4 h; Cmax [10]: 274 nM; bioavailability [11]: 36%; clearance [12]: 6.67 mL/min/kg; Vd [13]: 3.1 L/kg; half-life [14]: 9 h; Cmax [15]: 989 nM; bioavailability [16]: 18% |
| C=CCN1CC[C@@H](Cc2ccc(F)cc2)C[C@@H]1CCCNC(=O)Nc1cccc(C(C)=O)c1 | 4.1 nM (antagonist) | 217 nM | 855 nM | 1230 nM | – |
| CC(=O)CN1CC[C@@H](Cc2ccc(F)cc2)C[C@@H]1CCCNC(=O)Nc1cc(C(C)=O)cc(C(C)=O)c1 | 0.9 nM (antagonist) | 11 nM | 754 nM | 381 nM | – |
| CC(=O)c1cc(NC(=O)NCCC[C@H]2C[C@H](Cc3ccc(F)cc3)CCN2C(C)=O)cc(C(C)=O)c1 | 3.9 nM (antagonist) | 5460 nM | 1220 nM | 1380 nM | IC50 [5]: 133 nM; EC50 [6]: > 100 nM |
| CC(=O)c1cc(NC(=O)NCCC[C@H]2C[C@H](Cc3ccc(F)cc3)CCN2CCCO)cc(C(C)=O)c1 | 1.3 nM (antagonist) | 212 nM | 609 nM | 497 nM | – |
| CCC(=O)N1CC[C@@H](Cc2ccc(F)cc2)C[C@@H]1CCCNC(=O)Nc1cc(C(C)=O)cc(C(C)=O)c1 | 5.8 nM (antagonist) | 224 nM | 2080 nM | 9260 nM | – |
| CC(=O)c1cc(NC(=O)NCCC[C@H]2C[C@H](Cc3ccc(F)cc3)CCN2CC(N)=O)cc(C(C)=O)c1 | 3.6 nM (antagonist) | 710 nM | 2660 nM | 5010 nM | – |
| CCCN1CC[C@@H](Cc2ccc(F)cc2)C[C@@H]1CCCNC(=O)Nc1cc(C(C)=O)cc(C(C)=O)c1 | 0.7 nM (antagonist) | 166 nM | 157 nM | 1480 nM | IC50 [5]: 1.2 nM; EC50 [6]: 4.7 nM |
| CC(=O)c1cc(NC(=O)NCCC[C@H]2C[C@H](Cc3ccc(F)cc3)CCN2CC(F)F)cc(C(C)=O)c1 | 12.4 nM (antagonist) | 328 nM | 931 nM | 1050 nM | – |
| CC(=O)c1cccc(NC(=O)NCCC[C@H]2C[C@H](Cc3ccccc3)CCN2)c1 (racemic) | 6 nM (antagonist) | 42 nM | 32 nM | 39 nM | – |
| N#Cc1cccc(NC(=O)NCCC[C@H]2C[C@H](Cc3ccccc3)CCN2)c1 (racemic) | 22 nM (antagonist) | – | – | – | – |
| N#Cc1cccc(NC(=O)NCCCC[C@H]2C[C@H](Cc3ccccc3)CCN2)c1 (racemic) | 142 nM (antagonist) | – | – | – | – |
| N#Cc1cccc(NC(=O)NCCC[C@@H]2C[C@H](Cc3ccccc3)CCN2)c1 (racemic) | 386 nM (antagonist) | – | – | – | – |
| N#Cc1cccc(NC(=O)NCC[C@H]2C[C@H](Cc3ccccc3)CCN2)c1 (racemic) | 185 nM (antagonist) | – | – | – | – |
| N#Cc1cccc(NC(=O)NCCC[C@H]2C[C@H](Cc3ccccc3)CCN2)c1 (stereo in doubt; 4) | 13 nM (antagonist) | 35 nM | 34 nM | 37 nM | – |
| N#Cc1cccc(NC(=O)NCCC[C@H]2C[C@H](Cc3ccccc3)CCN2)c1 (stereo in doubt; 5) | 644 nM (antagonist) | 54 nM | 10 nM | 46 nM | – |
